# Measurements from ChEMBL document CHEMBL4507268 (2021).
# Key:
# [1] = target: Sigma intracellular receptor 2 (Homo sapiens, UniProt Q5BJF2); test: GPCRScan assay: inhibition of Sigma 2; parameters: radioligand conc. used [nm] 5.0, parental cells HEKT
# [2] = target: D(2) dopamine receptor (Homo sapiens) (UniProt P14416); conditions: Compound concentration 10.0 uM
# [3] = target: Maternal embryonic leucine zipper kinase (Homo sapiens) (UniProt Q14680); conditions: Compound concentration 1.0 uM
# [4] = target: T1, Tyrosine-protein kinase Mer (Homo sapiens) (UniProt Q12866); conditions: Compound concentration 1.0 uM
# T1 sequence (whole entry): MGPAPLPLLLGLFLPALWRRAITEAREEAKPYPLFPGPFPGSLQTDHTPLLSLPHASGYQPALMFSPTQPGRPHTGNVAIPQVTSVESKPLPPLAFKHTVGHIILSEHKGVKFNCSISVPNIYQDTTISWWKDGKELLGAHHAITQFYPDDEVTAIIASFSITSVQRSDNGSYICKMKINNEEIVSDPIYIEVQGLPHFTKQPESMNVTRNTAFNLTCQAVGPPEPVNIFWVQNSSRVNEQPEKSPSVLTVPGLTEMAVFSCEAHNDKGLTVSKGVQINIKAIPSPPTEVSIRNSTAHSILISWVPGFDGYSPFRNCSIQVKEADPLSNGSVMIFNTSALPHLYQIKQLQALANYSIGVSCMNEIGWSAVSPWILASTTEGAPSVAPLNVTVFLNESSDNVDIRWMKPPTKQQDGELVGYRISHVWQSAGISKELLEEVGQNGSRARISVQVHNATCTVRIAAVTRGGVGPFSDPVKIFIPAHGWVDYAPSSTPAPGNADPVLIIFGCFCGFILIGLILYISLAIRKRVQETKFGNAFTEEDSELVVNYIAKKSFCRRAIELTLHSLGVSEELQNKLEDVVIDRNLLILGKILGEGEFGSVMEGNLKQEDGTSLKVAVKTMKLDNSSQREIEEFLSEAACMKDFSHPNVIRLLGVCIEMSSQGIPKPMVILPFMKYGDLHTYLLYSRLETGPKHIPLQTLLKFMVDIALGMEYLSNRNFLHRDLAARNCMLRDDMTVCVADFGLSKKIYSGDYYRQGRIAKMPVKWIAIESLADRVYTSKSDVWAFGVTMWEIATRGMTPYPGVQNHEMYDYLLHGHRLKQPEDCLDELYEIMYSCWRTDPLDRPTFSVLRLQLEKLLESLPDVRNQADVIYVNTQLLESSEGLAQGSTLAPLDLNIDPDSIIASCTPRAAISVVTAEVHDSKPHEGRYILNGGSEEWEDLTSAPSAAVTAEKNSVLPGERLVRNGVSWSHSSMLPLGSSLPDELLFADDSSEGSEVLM
# [5] = target: Serine/threonine-protein kinase 10 (Homo sapiens) (UniProt O94804); conditions: Compound concentration 1.0 uM
# Chain of Serine/threonine-protein kinase 10 (Homo sapiens) (O94804 whole entry, looked up): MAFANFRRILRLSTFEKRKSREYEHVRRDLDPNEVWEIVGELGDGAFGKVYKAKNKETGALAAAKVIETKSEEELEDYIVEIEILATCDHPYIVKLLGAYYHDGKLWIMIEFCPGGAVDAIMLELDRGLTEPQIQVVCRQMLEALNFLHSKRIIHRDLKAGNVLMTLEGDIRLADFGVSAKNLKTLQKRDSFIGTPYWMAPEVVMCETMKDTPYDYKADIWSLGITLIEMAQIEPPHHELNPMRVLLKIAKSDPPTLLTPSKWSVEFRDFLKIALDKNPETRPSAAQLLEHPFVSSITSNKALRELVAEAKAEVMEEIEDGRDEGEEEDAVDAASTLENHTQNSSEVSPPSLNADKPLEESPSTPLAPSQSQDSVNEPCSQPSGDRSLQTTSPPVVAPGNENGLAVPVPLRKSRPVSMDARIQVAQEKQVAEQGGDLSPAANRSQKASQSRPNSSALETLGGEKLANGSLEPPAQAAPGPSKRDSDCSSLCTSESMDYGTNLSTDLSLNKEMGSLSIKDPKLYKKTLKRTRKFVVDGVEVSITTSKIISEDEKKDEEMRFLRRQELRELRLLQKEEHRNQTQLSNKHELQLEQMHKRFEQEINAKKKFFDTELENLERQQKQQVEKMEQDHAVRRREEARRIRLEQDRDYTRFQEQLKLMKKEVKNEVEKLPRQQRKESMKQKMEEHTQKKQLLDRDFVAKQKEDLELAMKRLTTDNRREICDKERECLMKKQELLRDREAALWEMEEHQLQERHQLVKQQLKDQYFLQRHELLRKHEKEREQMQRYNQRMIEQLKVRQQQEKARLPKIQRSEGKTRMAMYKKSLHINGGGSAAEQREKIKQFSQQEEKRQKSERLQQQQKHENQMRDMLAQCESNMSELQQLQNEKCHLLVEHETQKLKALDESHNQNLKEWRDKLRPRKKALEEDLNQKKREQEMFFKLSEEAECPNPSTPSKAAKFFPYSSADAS
# [6] = target: T2, Inhibitor of nuclear factor kappa-B kinase subunit beta (Homo sapiens) (UniProt O14920); conditions: Compound concentration 1.0 uM
# T2 sequence (whole entry): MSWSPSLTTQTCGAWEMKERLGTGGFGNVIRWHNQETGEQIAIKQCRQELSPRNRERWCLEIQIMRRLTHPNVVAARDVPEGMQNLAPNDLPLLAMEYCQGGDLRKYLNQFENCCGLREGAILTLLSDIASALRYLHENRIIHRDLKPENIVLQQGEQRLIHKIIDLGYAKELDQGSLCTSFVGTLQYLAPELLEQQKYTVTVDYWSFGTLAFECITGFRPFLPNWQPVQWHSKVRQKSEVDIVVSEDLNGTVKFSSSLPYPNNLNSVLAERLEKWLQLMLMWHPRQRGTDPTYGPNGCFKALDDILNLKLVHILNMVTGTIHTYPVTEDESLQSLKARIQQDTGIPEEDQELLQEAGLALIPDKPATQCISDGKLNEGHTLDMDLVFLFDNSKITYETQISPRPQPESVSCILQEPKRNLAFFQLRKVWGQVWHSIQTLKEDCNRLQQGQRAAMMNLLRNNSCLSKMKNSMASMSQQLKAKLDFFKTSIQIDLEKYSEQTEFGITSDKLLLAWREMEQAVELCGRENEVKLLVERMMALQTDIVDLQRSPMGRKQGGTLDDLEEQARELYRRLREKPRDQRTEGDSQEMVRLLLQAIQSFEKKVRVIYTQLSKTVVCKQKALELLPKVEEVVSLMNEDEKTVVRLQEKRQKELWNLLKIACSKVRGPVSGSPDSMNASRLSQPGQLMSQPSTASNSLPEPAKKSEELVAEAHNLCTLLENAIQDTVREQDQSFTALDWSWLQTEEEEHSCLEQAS
# [7] = target: Mitogen-activated protein kinase kinase kinase 20 (Homo sapiens) (UniProt Q9NYL2); conditions: Compound concentration 1.0 uM
# Chain of Mitogen-activated protein kinase kinase kinase 20 (Homo sapiens) (Q9NYL2 2-800 limits assumed): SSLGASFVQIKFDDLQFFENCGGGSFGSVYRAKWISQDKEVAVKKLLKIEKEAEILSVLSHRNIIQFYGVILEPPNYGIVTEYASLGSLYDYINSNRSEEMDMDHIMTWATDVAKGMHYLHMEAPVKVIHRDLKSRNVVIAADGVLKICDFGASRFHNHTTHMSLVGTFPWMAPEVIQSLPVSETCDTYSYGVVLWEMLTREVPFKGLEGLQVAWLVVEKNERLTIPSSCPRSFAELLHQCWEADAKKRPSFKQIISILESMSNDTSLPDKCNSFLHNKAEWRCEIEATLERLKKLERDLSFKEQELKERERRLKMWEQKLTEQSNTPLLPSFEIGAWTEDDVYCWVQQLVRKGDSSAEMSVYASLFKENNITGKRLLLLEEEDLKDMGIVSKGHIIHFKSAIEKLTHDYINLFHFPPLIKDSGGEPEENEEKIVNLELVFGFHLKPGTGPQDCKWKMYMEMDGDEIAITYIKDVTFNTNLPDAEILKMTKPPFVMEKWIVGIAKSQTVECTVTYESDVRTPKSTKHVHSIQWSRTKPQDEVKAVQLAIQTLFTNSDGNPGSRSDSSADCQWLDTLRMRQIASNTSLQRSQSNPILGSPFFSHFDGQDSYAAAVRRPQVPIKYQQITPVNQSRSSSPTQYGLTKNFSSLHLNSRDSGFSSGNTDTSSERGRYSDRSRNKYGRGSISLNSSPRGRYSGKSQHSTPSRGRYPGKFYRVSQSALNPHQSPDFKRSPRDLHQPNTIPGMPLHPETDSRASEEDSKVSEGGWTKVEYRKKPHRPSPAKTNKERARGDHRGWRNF
# [8] = target: RAC-gamma serine/threonine-protein kinase (Homo sapiens) (UniProt Q9Y243); conditions: Compound concentration 1.0 uM
# [9] = target: Serine/threonine-protein kinase pim-3 (Homo sapiens) (UniProt Q86V86); conditions: Compound concentration 1.0 uM
# [10] = target: Cyclin-dependent kinase 2/cyclin E (Homo sapiens) (UniProt P24864+P24941+O96020); conditions: Compound concentration 1.0 uM
# [11] = target: Tyrosine-protein kinase SYK (Homo sapiens) (UniProt P43405); conditions: Compound concentration 1.0 uM
# [12] = target: Leukocyte tyrosine kinase receptor (Homo sapiens) (UniProt P29376); conditions: Compound concentration 1.0 uM
# Chain of Leukocyte tyrosine kinase receptor (Homo sapiens) (P29376 whole entry): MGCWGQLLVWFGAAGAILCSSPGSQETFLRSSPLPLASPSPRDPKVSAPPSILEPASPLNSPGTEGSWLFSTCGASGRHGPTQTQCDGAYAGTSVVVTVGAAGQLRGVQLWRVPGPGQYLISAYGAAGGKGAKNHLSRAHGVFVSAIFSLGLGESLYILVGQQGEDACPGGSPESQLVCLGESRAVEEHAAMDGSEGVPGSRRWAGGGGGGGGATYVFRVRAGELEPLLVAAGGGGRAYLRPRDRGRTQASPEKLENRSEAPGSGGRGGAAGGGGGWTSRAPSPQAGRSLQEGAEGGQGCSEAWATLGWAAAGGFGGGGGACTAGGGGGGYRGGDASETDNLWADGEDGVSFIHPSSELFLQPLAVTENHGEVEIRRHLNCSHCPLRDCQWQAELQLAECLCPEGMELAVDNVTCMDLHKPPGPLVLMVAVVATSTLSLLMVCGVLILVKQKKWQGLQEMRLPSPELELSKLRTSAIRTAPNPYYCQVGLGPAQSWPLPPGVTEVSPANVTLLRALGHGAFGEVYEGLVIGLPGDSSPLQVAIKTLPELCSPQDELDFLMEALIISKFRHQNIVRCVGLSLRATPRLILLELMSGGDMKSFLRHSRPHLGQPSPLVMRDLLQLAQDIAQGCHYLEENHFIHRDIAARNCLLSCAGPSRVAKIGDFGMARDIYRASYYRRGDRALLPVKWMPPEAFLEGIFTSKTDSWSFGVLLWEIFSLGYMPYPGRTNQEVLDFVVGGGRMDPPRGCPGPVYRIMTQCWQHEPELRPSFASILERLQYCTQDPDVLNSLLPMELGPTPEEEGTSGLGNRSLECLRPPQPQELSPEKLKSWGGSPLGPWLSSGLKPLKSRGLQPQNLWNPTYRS
# [13] = target: Cyclin-dependent kinase 14/Cyclin-Y (Homo sapiens) (UniProt O94921+Q8ND76); conditions: Compound concentration 1.0 uM
# [14] = target: 5'-AMP-activated protein kinase catalytic subunit alpha-2 (Homo sapiens) (UniProt P54646); conditions: Compound concentration 1.0 uM
# [15] = target: Calcium/calmodulin-dependent protein kinase type II subunit beta (Homo sapiens) (UniProt Q13554); conditions: Compound concentration 1.0 uM
# Chain of Calcium/calmodulin-dependent protein kinase type II subunit beta (Homo sapiens) (Q13554 whole entry): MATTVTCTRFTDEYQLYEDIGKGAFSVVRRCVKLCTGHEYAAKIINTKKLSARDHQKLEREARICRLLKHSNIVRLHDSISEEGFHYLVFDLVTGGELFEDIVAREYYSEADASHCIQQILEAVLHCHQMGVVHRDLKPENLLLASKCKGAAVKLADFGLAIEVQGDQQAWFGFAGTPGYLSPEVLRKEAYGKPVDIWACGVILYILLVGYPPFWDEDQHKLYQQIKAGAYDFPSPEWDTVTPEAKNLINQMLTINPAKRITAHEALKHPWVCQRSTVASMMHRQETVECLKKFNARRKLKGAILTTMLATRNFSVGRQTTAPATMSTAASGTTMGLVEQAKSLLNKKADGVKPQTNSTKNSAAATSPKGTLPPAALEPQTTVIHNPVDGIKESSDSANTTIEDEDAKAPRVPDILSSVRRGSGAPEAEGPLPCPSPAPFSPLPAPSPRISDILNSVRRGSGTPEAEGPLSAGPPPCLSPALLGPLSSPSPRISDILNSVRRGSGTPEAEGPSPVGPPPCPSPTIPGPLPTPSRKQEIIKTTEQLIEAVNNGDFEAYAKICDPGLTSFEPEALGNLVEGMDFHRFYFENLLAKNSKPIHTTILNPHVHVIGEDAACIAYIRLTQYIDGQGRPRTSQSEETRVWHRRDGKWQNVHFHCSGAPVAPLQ
# [16] = target: Protein kinase C zeta type (Homo sapiens) (UniProt Q05513); conditions: Compound concentration 1.0 uM
# Chain of Protein kinase C zeta type (Homo sapiens) (Q05513 whole entry): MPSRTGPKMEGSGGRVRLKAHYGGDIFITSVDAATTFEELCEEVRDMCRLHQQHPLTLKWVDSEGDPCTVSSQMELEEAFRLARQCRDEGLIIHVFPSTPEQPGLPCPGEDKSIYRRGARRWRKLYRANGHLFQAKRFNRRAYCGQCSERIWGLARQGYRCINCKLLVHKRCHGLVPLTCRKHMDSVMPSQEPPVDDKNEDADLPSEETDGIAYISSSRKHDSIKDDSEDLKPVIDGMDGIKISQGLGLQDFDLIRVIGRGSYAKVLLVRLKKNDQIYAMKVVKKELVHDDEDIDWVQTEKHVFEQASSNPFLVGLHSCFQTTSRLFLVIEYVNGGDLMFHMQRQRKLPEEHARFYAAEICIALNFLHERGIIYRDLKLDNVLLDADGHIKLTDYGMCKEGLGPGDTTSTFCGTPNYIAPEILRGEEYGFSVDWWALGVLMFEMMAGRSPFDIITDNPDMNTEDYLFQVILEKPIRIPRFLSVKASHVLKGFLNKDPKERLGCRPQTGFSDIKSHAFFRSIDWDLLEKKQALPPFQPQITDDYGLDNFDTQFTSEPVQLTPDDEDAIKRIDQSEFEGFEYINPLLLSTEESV
# Chain of D(2) dopamine receptor (Homo sapiens) (P14416 whole entry): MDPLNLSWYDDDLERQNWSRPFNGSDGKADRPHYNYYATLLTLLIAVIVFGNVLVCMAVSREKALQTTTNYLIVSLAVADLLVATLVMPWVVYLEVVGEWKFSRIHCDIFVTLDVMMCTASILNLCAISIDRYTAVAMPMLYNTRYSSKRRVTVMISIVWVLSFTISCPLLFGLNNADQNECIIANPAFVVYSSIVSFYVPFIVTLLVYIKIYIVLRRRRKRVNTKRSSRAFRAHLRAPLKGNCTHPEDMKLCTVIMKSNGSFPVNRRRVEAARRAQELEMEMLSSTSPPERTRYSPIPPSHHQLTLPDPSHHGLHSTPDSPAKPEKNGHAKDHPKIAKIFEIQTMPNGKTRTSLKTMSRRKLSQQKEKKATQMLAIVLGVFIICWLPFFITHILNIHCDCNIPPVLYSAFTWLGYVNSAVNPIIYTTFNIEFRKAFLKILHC
# Chain of Sigma intracellular receptor 2 (Q5BJF2 whole entry): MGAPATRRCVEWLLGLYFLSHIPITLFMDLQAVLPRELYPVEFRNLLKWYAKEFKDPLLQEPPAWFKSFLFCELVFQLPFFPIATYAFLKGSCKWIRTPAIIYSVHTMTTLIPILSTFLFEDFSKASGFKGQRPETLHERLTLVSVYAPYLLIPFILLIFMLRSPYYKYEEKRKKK
SMILES,Ki [1] [µM],inhibition [2] [%],% residual kinase activity [3] [%],% residual kinase activity [4] [%],% residual kinase activity [5] [%],% residual kinase activity [6] [%],% residual kinase activity [7] [%],% residual kinase activity [8] [%],% residual kinase activity [9] [%],% residual kinase activity [10] [%],% residual kinase activity [11] [%],% residual kinase activity [12] [%],% residual kinase activity [13] [%],% residual kinase activity [14] [%],% residual kinase activity [15] [%],% residual kinase activity [16] [%]
Cc1nc(C2CCN(C(=O)c3ccc(OC(F)(F)F)cc3N)CC2)c2ncc(N3CCN(C)CC3)cc2n1 [BAY-693],4.9,2.97,,,,,,,,,,,,,,
CN1CCN(c2cnc3c(C4CCN(C(=O)c5ccc(OC(F)(F)F)cc5N)CC4)ncnc3c2)CC1 [BAY-885],,,105,91,114,106,100,113,102,99,87,103,117,109,103,114
